In brackets after ≈: the same amount, converted by molar mass.
Columns and labels:
[1] = system: S. epidermidis 6098; experiment: MIC, Macro-broth dilution method; type: cell-based, Staphylococcus epidermidis
Source text: (§1) The in-vitro potency was established by minimum inhibitory concentration (MIC) determinations of the compound PM181104 against bacterial strains, by using the Macro-broth dilution method as per National Committee for Clinical Laboratory Standards (2000) guidelines [Journal of Anti-microbial Chemotherapy, 2002, 50, 125-128 (Cross Reference 8: Methods for Dilution Antimicrobial Susceptibility Tests for Bacteria that Grow Aerobically-Fifth Edition: Approved Standard M7-A5. NCCLS, Wayne, Pa., USA)]. Unless stated otherwise, Mueller-Hinton broth was used as nutrient medium for the assay. Linezolid (manufactured by Glenmark Pharma Ltd; Batch no: K2005028) was used as known standard in all in-vitro experiments. For preparation of the stock solution the compound PM181104 was dissolved in chloroform (5% of the total required volume) and diluted using methanol (95% of the total required volume).

[2] = system: S. epidermidis 823; experiment: MIC, Macro-broth dilution method; type: cell-based, Staphylococcus epidermidis
Source text: as §1

[3] = system: S. epidermidis 5744IW; experiment: MIC, Macro-broth dilution method; type: cell-based, Staphylococcus epidermidis
Source text: as §1

[4] = system: S. epidermidis 6493II(2)W; experiment: MIC, Macro-broth dilution method; type: cell-based, Staphylococcus epidermidis
Source text: as §1

[5] = system: S. epidermidis 32965; experiment: MIC, Macro-broth dilution method; type: cell-based, Staphylococcus epidermidis
Source text: as §1

[6] = system: S. epidermidis 10221II W; experiment: MIC, Macro-broth dilution method; type: cell-based, Staphylococcus epidermidis
Source text: as §1

[7] = system: S. epidermidis Pat 01 IV; experiment: MIC, Macro-broth dilution method; type: cell-based, Staphylococcus epidermidis
Source text: as §1

[8] = solvents in which soluble
Source text: The physico-chemical and spectral properties of the compound PM181104

[9] = system: S. aureus E-710; experiment: Lung infection model; type: in vivo, Balb/C mice; conditions: 5 mg/kg intravenously at 24 and 36 hours post infection, lungs collected at 48 hours
Source text: The in-vivo potency was established by protection dose (PD) determinations of the compound PM181104 for its antibiotic activity in three animal models using either male or female Balb/C mice.
The models used were the general purpose efficacy testing models and organ/tissue specific efficacy testing models. The general purpose efficacy testing models used were systemic infection model (septicemia), and localized infection model (neutropenic thigh model). The Organ/Tissue specific infection models used for efficacy testing were kidney, lung infection, and skin abscess model.
Balb/C mice were rendered neutropenic by intraperitoneally administering 200 mg/kg cyclophosphamide four days and two days prior to infection. On the day of infection, the mice were anesthetized and infected with S. aureus E-710 log-phase culture suspension having bacterial density of approximately 10^6 to 10^7 cfu/ml. 24 and 36 hours post infection the first and second respective dose of drug was administered intravenously. 48 hours post infection, the animals were humanely euthanized and their lungs were aseptically collected to determine the viable count of bacteria. In this model, PM181104 was tested at 5 mg/kg dose prepared in cremophor-ethanol formulation as described in example 14. Two standard antibiotics viz. Linezolid (80 mg/kg single dose at 24 hours post infection) and Vancomycin (110 mg/kg, two doses at 24 and 48 hours post infection) were used as positive controls.

[10] = system: B. firmus; experiment: MIC, Macro-broth dilution method; type: cell-based, Bacillus firmus
Source text: as §1

Compound: C=C(NC(=O)C(=C)NC(=O)C1CCCN1C(=O)c1nc(-c2ccc(-c3nc(C(=O)NC(=C)C(=O)NC(C)C(N)=O)cs3)c(-c3csc(C4Cc5nc(cs5)C(=O)NC(Cc5ccccc5)C5=NC(CS5)C(=O)NC(Cc5ccc(O)cc5)C(=O)N5CCCC5c5nc(cs5)C(=O)N4)n3)n2)oc1C)C(N)=O (centres unmarked) [PM181104]
- MIC [1]: 0.0625 µg/mL (≈ 0.0412 µM)
- MIC [2]: 0.03125 µg/mL (≈ 0.0206 µM)
- MIC [3]: 0.01563 µg/mL (≈ 0.0103 µM)
- MIC [4]: 0.0625 µg/mL (≈ 0.0412 µM)
- MIC [5]: 0.03125 µg/mL (≈ 0.0206 µM)
- MIC [6]: 0.00781 µg/mL (≈ 0.00515 µM)
- MIC [7]: 0.0625 µg/mL (≈ 0.0412 µM)
- Solubility [8]: Methanol, DMSO
- activity profile in lung infection [9]: bacteriostatic activity
- difference in the bacterial count in the lungs as compared to untreated control animals [9]: approximately 2 log
- MIC [10]: 0.01563 µg/mL (≈ 0.0103 µM)

— patent US8003602B2 (priority 2006, dated 2011)
